{"source": "the supplement of paper PMC10307832", "test_in_all_cases": "relative viability (nuclei count vs DMSO), 5 days (fraction); higher = more cells survive", "key": {"17-AAG + Palbociclib": {"compound": "C=CCNC1=C2C[C@@H](C)C[C@H](OC)[C@H](O)[C@@H](C)/C=C(\\C)[C@H](OC(N)=O)[C@@H](OC)/C=C\\C=C(/C)C(=O)NC(=CC1=O)C2=O [17-AAG] + CC(=O)c1c(C)c2cnc(Nc3ccc(N4CCNCC4)cn3)nc2n(C2CCCC2)c1=O [Palbociclib] (partner 0.5 µM)", "in_short": "(§1)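 After 5 days of treatment, lung cancer cells in 1536-well plates were fixed and stained in a single step (final 0.05% Triton X-100, 1% formaldehyde, 1 ug/ml Hoechst) and their nuclei counted on 4× images. Treatment had been applied by pin tool the day after seeding as one drug alone or as a fixed anchor-drug dose with five library-drug doses (not always all listed) in √10 steps. Relative viability is the nuclei count of treated wells divided by that of vehicle wells, and values are medians of duplicate plates.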"}, "17-AAG + Pictilisib": {"compound": "C=CCNC1=C2C[C@@H](C)C[C@H](OC)[C@H](O)[C@@H](C)/C=C(\\C)[C@H](OC(N)=O)[C@@H](OC)/C=C\\C=C(/C)C(=O)NC(=CC1=O)C2=O [17-AAG] + CS(=O)(=O)N1CCN(Cc2cc3nc(-c4cccc5[nH]ncc45)nc(N4CCOCC4)c3s2)CC1 [Pictilisib] (partner 1 µM)", "in_short": "as §1"}, "17-AAG + OSI-027": {"compound": "C=CCNC1=C2C[C@@H](C)C[C@H](OC)[C@H](O)[C@@H](C)/C=C(\\C)[C@H](OC(N)=O)[C@@H](OC)/C=C\\C=C(/C)C(=O)NC(=CC1=O)C2=O [17-AAG] + COc1cccc2cc(-c3nc([C@H]4CC[C@H](C(=O)O)CC4)n4ncnc(N)c34)[nH]c12 [OSI-027] (partner 0.5 µM)", "in_short": "as §1"}, "17-AAG + Luminespib": {"compound": "C=CCNC1=C2C[C@@H](C)C[C@H](OC)[C@H](O)[C@@H](C)/C=C(\\C)[C@H](OC(N)=O)[C@@H](OC)/C=C\\C=C(/C)C(=O)NC(=CC1=O)C2=O [17-AAG] + CCNC(=O)c1noc(-c2cc(C(C)C)c(O)cc2O)c1-c1ccc(CN2CCOCC2)cc1 [Luminespib] (partner 0.01 µM)", "in_short": "as §1"}}, "data": [{"cell line": "LCLC-97TM1", "values": [{"measurement": "relative viability", "setting": "17-AAG + Palbociclib; first compound 0.00128 µM", "value": 0.264}, {"measurement": "relative viability", "setting": "17-AAG + Palbociclib; first compound 0.004048 µM", "value": 0.213}, {"measurement": "relative viability", "setting": "17-AAG + Palbociclib; first compound 0.0128 µM", "value": 0.199}, {"measurement": "relative viability", "setting": "17-AAG + Palbociclib; first compound 0.04048 µM", "value": 0.251}, {"measurement": "relative viability", "setting": "17-AAG + Palbociclib; first compound 0.128 µM", "value": 0.209}, {"measurement": "relative viability", "setting": "17-AAG + Pictilisib; first compound 0.00128 µM", "value": 0.263}, {"measurement": "relative viability", "setting": "17-AAG + Pictilisib; first compound 0.004048 µM", "value": 0.228}, {"measurement": "relative viability", "setting": "17-AAG + Pictilisib; first compound 0.0128 µM", "value": 0.211}, {"measurement": "relative viability", "setting": "17-AAG + Pictilisib; first compound 0.04048 µM", "value": 0.13}, {"measurement": "relative viability", "setting": "17-AAG + Pictilisib; first compound 0.128 µM", "value": 0.104}, {"measurement": "relative viability", "setting": "17-AAG + OSI-027; first compound 0.00128 µM", "value": 0.506}, {"measurement": "relative viability", "setting": "17-AAG + OSI-027; first compound 0.004048 µM", "value": 0.575}, {"measurement": "relative viability", "setting": "17-AAG + OSI-027; first compound 0.0128 µM", "value": 0.392}, {"measurement": "relative viability", "setting": "17-AAG + OSI-027; first compound 0.04048 µM", "value": 0.241}, {"measurement": "relative viability", "setting": "17-AAG + OSI-027; first compound 0.128 µM", "value": 0.18}, {"measurement": "relative viability", "setting": "17-AAG + Luminespib; first compound 0.00128 µM", "value": 0.826}, {"measurement": "relative viability", "setting": "17-AAG + Luminespib; first compound 0.004048 µM", "value": 0.785}, {"measurement": "relative viability", "setting": "17-AAG + Luminespib; first compound 0.0128 µM", "value": 0.707}, {"measurement": "relative viability", "setting": "17-AAG + Luminespib; first compound 0.04048 µM", "value": 0.58}, {"measurement": "relative viability", "setting": "17-AAG + Luminespib; first compound 0.128 µM", "value": 0.195}]}, {"cell line": "HARA", "values": [{"measurement": "relative viability", "setting": "17-AAG + Palbociclib; first compound 0.00128 µM", "value": 0.248}, {"measurement": "relative viability", "setting": "17-AAG + Palbociclib; first compound 0.004048 µM", "value": 0.27}, {"measurement": "relative viability", "setting": "17-AAG + Palbociclib; first compound 0.0128 µM", "value": 0.261}, {"measurement": "relative viability", "setting": "17-AAG + Palbociclib; first compound 0.04048 µM", "value": 0.263}, {"measurement": "relative viability", "setting": "17-AAG + Palbociclib; first compound 0.128 µM", "value": 0.215}, {"measurement": "relative viability", "setting": "17-AAG + Pictilisib; first compound 0.00128 µM", "value": 0.49}, {"measurement": "relative viability", "setting": "17-AAG + Pictilisib; first compound 0.004048 µM", "value": 0.445}, {"measurement": "relative viability", "setting": "17-AAG + Pictilisib; first compound 0.0128 µM", "value": 0.385}, {"measurement": "relative viability", "setting": "17-AAG + Pictilisib; first compound 0.04048 µM", "value": 0.16}, {"measurement": "relative viability", "setting": "17-AAG + Pictilisib; first compound 0.128 µM", "value": 0.164}, {"measurement": "relative viability", "setting": "17-AAG + OSI-027; first compound 0.00128 µM", "value": 0.503}, {"measurement": "relative viability", "setting": "17-AAG + OSI-027; first compound 0.004048 µM", "value": 0.56}, {"measurement": "relative viability", "setting": "17-AAG + OSI-027; first compound 0.0128 µM", "value": 0.489}, {"measurement": "relative viability", "setting": "17-AAG + OSI-027; first compound 0.04048 µM", "value": 0.151}, {"measurement": "relative viability", "setting": "17-AAG + OSI-027; first compound 0.128 µM", "value": 0.0613}, {"measurement": "relative viability", "setting": "17-AAG + Luminespib; first compound 0.00128 µM", "value": 0.831}, {"measurement": "relative viability", "setting": "17-AAG + Luminespib; first compound 0.004048 µM", "value": 0.544}, {"measurement": "relative viability", "setting": "17-AAG + Luminespib; first compound 0.0128 µM", "value": 0.757}, {"measurement": "relative viability", "setting": "17-AAG + Luminespib; first compound 0.04048 µM", "value": 0.525}, {"measurement": "relative viability", "setting": "17-AAG + Luminespib; first compound 0.128 µM", "value": 0.207}]}, {"cell line": "HCC-78", "values": [{"measurement": "relative viability", "setting": "17-AAG + Palbociclib; first compound 0.00128 µM", "value": 0.47}, {"measurement": "relative viability", "setting": "17-AAG + Palbociclib; first compound 0.004048 µM", "value": 0.464}, {"measurement": "relative viability", "setting": "17-AAG + Palbociclib; first compound 0.0128 µM", "value": 0.475}, {"measurement": "relative viability", "setting": "17-AAG + Palbociclib; first compound 0.04048 µM", "value": 0.442}, {"measurement": "relative viability", "setting": "17-AAG + Palbociclib; first compound 0.128 µM", "value": 0.424}, {"measurement": "relative viability", "setting": "17-AAG + Pictilisib; first compound 0.00128 µM", "value": 0.238}, {"measurement": "relative viability", "setting": "17-AAG + Pictilisib; first compound 0.0128 µM", "value": 0.333}, {"measurement": "relative viability", "setting": "17-AAG + Pictilisib; first compound 0.04048 µM", "value": 0.24}, {"measurement": "relative viability", "setting": "17-AAG + Pictilisib; first compound 0.128 µM", "value": 0.212}, {"measurement": "relative viability", "setting": "17-AAG + OSI-027; first compound 0.00128 µM", "value": 0.375}, {"measurement": "relative viability", "setting": "17-AAG + OSI-027; first compound 0.004048 µM", "value": 0.416}, {"measurement": "relative viability", "setting": "17-AAG + OSI-027; first compound 0.0128 µM", "value": 0.405}, {"measurement": "relative viability", "setting": "17-AAG + OSI-027; first compound 0.04048 µM", "value": 0.39}, {"measurement": "relative viability", "setting": "17-AAG + OSI-027; first compound 0.128 µM", "value": 0.384}]}, {"cell line": "NCI-H1666", "values": [{"measurement": "relative viability", "setting": "17-AAG + Palbociclib; first compound 0.00128 µM", "value": 0.618}, {"measurement": "relative viability", "setting": "17-AAG + Palbociclib; first compound 0.004048 µM", "value": 0.672}, {"measurement": "relative viability", "setting": "17-AAG + Palbociclib; first compound 0.0128 µM", "value": 0.609}, {"measurement": "relative viability", "setting": "17-AAG + Palbociclib; first compound 0.04048 µM", "value": 0.519}, {"measurement": "relative viability", "setting": "17-AAG + Palbociclib; first compound 0.128 µM", "value": 0.526}, {"measurement": "relative viability", "setting": "17-AAG + Pictilisib; first compound 0.00128 µM", "value": 0.585}, {"measurement": "relative viability", "setting": "17-AAG + Pictilisib; first compound 0.004048 µM", "value": 0.302}, {"measurement": "relative viability", "setting": "17-AAG + Pictilisib; first compound 0.0128 µM", "value": 0.265}, {"measurement": "relative viability", "setting": "17-AAG + Pictilisib; first compound 0.04048 µM", "value": 0.196}, {"measurement": "relative viability", "setting": "17-AAG + Pictilisib; first compound 0.128 µM", "value": 0.157}, {"measurement": "relative viability", "setting": "17-AAG + OSI-027; first compound 0.00128 µM", "value": 0.875}, {"measurement": "relative viability", "setting": "17-AAG + OSI-027; first compound 0.004048 µM", "value": 0.782}, {"measurement": "relative viability", "setting": "17-AAG + OSI-027; first compound 0.0128 µM", "value": 0.52}, {"measurement": "relative viability", "setting": "17-AAG + OSI-027; first compound 0.04048 µM", "value": 0.395}, {"measurement": "relative viability", "setting": "17-AAG + OSI-027; first compound 0.128 µM", "value": 0.335}, {"measurement": "relative viability", "setting": "17-AAG + Luminespib; first compound 0.00128 µM", "value": 1}, {"measurement": "relative viability", "setting": "17-AAG + Luminespib; first compound 0.004048 µM", "value": 0.86}, {"measurement": "relative viability", "setting": "17-AAG + Luminespib; first compound 0.0128 µM", "value": 0.474}, {"measurement": "relative viability", "setting": "17-AAG + Luminespib; first compound 0.04048 µM", "value": 0.296}, {"measurement": "relative viability", "setting": "17-AAG + Luminespib; first compound 0.128 µM", "value": 0.342}]}]}
